The source of these data is patent US20220380828A1, “MICROBIAL DETECTION PLATFORM” (NUCLEASE PROBE TECHNOLOGIES, INC., priority 2019, published 2022).

d = 2'-deoxy (DNA); m = 2'-O-methyl

For data set [1], the system named is E. coli (ATCC 25922). Kind of data set: E. coli detection on fluorogenic agar in 96-well plates. The data set is classed as cell-based, Escherichia coli. The following applies: 0.5 μM probe in TSA-based media, 96-well plate, 37° C.; vs S. aureus and S. pyogenes. How it is done:
Tryptic Soy Agar (BD Cat. #236950) was autoclaved according to the manufacturer's instructions and cooled down to 50-60° C. Then, pre-sterilized components, including Tris-HCl (pH 8.0) (adjusted to 50 mM with the following stock solution: Fisher Scientific Cat. #BP1758-100), MgCl2 (adjusted to 20 mM with the following stock solution: Invitrogen Cat. #AM9530G), and Triton® X-100 (adjusted to 1% with the following stock solution: Fisher Scientific Cat. #50-751-7090). 0.5 μM Self-Hyb ATTO was also included where indicated. […]
E. coli (ATCC 25922) cultures were grown in Tryptic Soy Broth (BD Cat. #211825) overnight at 37° C. with shaking at 300-400 rpm. […] Plates were incubated at 37° C. and imaged using an IO-Rodeo fluorescent imager (IO-Rodeo, Large, Blue LED) and an iPhone 8 camera, and fluorescence was also measured concurrently with a Synergy H1 microplate reader (BioTek).
(§1) Two fluorescence measurement formats were used to detect the growth of target bacterial species on agar growth media. […] The fluorescence of the 96-well plates was also measured with a Bio-Tek fluorescence plate-reader using fluorescence filters tailored for green fluorescence, providing quantitative data.

Data set [2] concerns S. pyogenes (ATCC 12344). Kind of data set: S. pyogenes detection on probe-embedded agar plates. The following applies: agar plates with 0.5 μM probe, streaked with 10,000 cells, 37° C. The data set is classed as cell-based, Streptococcus pyogenes. How it is done: Tryptic Soy Agar (BD Cat. #236950) was autoclaved according to the manufacturer's instructions and cooled down to 50-60 degrees C. Then, pre-sterilized components including Tris-HCl (pH 8.0) (adjusted to 50 mM with the following stock solution: Fisher Scientific Cat. #BP1758-100) and MgCl2 (adjusted to 20 mM with the following stock solution: Invitrogen Cat. #AM9530G) were added and the resulting mixture was poured into 60 mm Petri dishes (Corning Cat. #430589). 0.5 μM Self-Hyb ATTO and 2 μg/mL Colistin (Alfa Aesar Cat. #AAJ67415XF) were also included where indicated. The agar mixtures were allowed to solidify. Then the Petri dishes were sealed with parafilm (Bemis Cat. #999) and stored at 4° C., protected from light.
S. pyogenes (ATCC® 12344) cultures were grown in Tryptic Soy Broth (BD Cat. #211825) overnight at 37° C. with shaking at 300-400 rpm. Dilutions to […] were made and streaked on agar Petri dishes with 1 μL calibrated inoculation loops (Fisher Scientific, Fisherbrand Cat. #22363601). […]
as §1

Data set [3] deals with S. pyogenes (ATCC 12344). Nature of the data set: S. pyogenes detection on selective fluorogenic agar in 96-well plates. Particulars: 0.5 μM probe, 96-well plate, in the presence of colistin (2 μg/ml), 37° C. The data set is classed as cell-based, Streptococcus pyogenes. How it is done:
Tryptic Soy Agar (BD Cat. #236950) was autoclaved according to the manufacturer's instructions and cooled down to 50-60° C. Then, pre-sterilized components, including Tris-HCl (pH 8.0) (adjusted to 50 mM with the following stock solution: Fisher Scientific Cat. #BP1758-100) and MgCl2 (adjusted to 20 mM with the following stock solution: Invitrogen Cat. #AM9530G) were added. 0.5 μM Self-Hyb ATTO and 2 μg/mL Colistin (Alfa Aesar Cat. #AAJ67415XF) were also included where indicated. 90 μL of the agar mixtures were pipetted into the wells of clear-bottom 96-well plates (Thermo Scientific, nunc Cat. #265301) and allowed to solidify. […]
S. pyogenes (ATCC® 12344™) cultures were grown in Tryptic Soy Broth (BD Cat. #211825) overnight at 37° C. with shaking at 300-400 rpm. […] Plates were incubated at 37° C. and imaged with an IO-Rodeo fluorescent imager (IO-Rodeo, Large, Blue LED) and an iPhone 8 camera, and fluorescence was also measured concurrently with a Synergy H1 microplate reader (BioTek).
as §1

Another data set concerns the target T1, Endonuclease I (Escherichia coli, UniProt P25736).
T1 sequence (P25736 23-235): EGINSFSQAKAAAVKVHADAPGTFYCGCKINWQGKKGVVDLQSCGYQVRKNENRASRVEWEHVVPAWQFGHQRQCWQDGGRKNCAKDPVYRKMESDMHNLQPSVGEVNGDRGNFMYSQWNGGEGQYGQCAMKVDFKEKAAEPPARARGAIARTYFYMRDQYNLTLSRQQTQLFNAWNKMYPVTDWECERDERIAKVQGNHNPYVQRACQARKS
Nature of the data set: Probe sensitivity to Endonuclease I. The data set is classed as biochemical.

The test system of another data set is nuclease of S. pyogenes. Nature of the data set: Probe sensitivity to S. pyogenes nuclease. The data set is classed as biochemical.
Data set [4] deals with micrococcal nuclease of S. aureus (Staphylococcus aureus, UniProt P00644). Kind of data set: Probe sensitivity to micrococcal nuclease. The data set is classed as biochemical.
For a further data set, the system named is most nucleases. Kind of data set: Probe resistance to nucleases in general. Type of data set: biochemical.
Another data set relates to S. aureus (ATCC 29213). Kind of data set: S. aureus detection on probe-embedded agar Petri dishes (fluorescence imaging). The data set is classed as cell-based, Staphylococcus aureus. The following applies: agar plates streaked with <1000 cells, 37° C., fluorescence plate imaging (SASelect: chromogenic agar). How it is done: (§2) Tryptic Soy Agar (BD Cat. #236950) was autoclaved according to the manufacturer's instructions and cooled down to 50-60° C. Then, pre-sterilized components, including Tris-HCl (pH 9.0) (adjusted to 50 mM using the following stock solution: Rockland Cat. #MB028-1000) and CaCl2) (adjusted to 15 mM using the following stock solution: Sigma-Aldrich Cat. #21115-100ML) were added and the resulting mixture was poured into 60 mm Petri dishes (Corning Cat. #430589). 1 μM or 2 μM AttoPoly T 4mer (IDT, custom order) and 4 μg/mL Cefoxitin (Alfa Aesar Cat. #AAJ6689103) were also included where indicated. The agar mixtures were allowed to solidify, then the Petri dishes were sealed with parafilm (Bemis Cat. #999) and stored at 4° C., protected from light.
S. aureus (ATCC 29213) cultures were grown in Tryptic Soy Broth (BD Cat. #211825) overnight at 37° C. with shaking at 300-400 rpm. Dilutions to […] were made and these were streaked on agar Petri dishes with 1 μL calibrated inoculation loops (Fisher Scientific, Fisherbrand Cat. #22363601). […]
as §1

Another data set has as its system MRSA (ATCC BAA1707). Kind of data set: MRSA vs MSSA detection on probe-embedded agar with/without cefoxitin, 96-well plates. Particulars: 1 μM probe in TSA-based media with/without cefoxitin, 37° C. The data set is classed as cell-based, Staphylococcus aureus. How it is done:
Tryptic Soy Agar (BD Cat. #236950) was autoclaved according to the manufacturer's instructions and cooled down to 50-60° C. Then, pre-sterilized additives, including Tris*HCl (pH 9.0) (adjusted to 50 mM with the following stock solution: Rockland Cat. #MB028-1000) and CaCl2) (adjusted to 15 mM with the following stock solution: Sigma-Aldrich Cat. #21115-100ML) were added. 1 μM or 2 μM AttoPoly T 4mer and 4 μg/mL Cefoxitin (Alfa Aesar Cat. #AAJ6689103) were also included where indicated. 90 μL of the agar mixtures were pipetted into the wells of clear-bottom 96-well plates (Thermo Scientific, nunc Cat. #265301) and allowed to solidify. […]
S. aureus (ATCC 29213) cultures were grown in Tryptic Soy Broth (BD Cat. #211825) overnight at 37° C. with shaking at 300-400 rpm. […] Plates were incubated at 37° C. and imaged using an IO-Rodeo fluorescent imager (IO-Rodeo, Large, Blue LED) and an iPhone 8 camera, and fluorescence was also concurrently measured with a Synergy H1 microplate reader (BioTek).
as §1

The test system of data set [5] is E. coli (ATCC 25922). Kind of data set: Specificity control on probe-embedded agar plates: E. coli. Particulars: 8 hours after plating. The data set is classed as cell-based, Escherichia coli. How it is done:
as §2
(§3) Two fluorescence measurement formats were used to detect the growth of target bacterial species on agar growth media. Agar media poured in 60 mm dishes or distributed to the wells of 96-well clear-bottomed plates were placed on an LED transilluminator (IORodeo) that emits blue light. A light filter was placed over the plates or dishes to block the LED-emitted light, but the filter still allows green light to pass, which is captured with an iPhone camera. […] The fluorescence of the 96-well plates was also measured with a Bio-Tek fluorescence plate-reader using fluorescence filters tailored for green fluorescence, providing quantitative data.

The test system of data set [6] is S. lugdunensis (ATCC 700328). Nature of the data set: Specificity control on probe-embedded agar plates: S. lugdunensis. Type of data set: cell-based, Staphylococcus lugdunensis. The following applies: 8 hours after plating. How it is done:
as §2, §3

Consider “5′-ATTO488-fC-fU-fA-fC-fG-fU-fA-fG-ZEN-RQSp-3′ (CUACGUAG; 2'-fluoro; ATTO488, ZEN, RQSp quencher; (1)..(8) Each base pair in this sequence is a 2′-fluoro modified nucleotide. Please see Table 1 of the Specification.) [Self-Hyb ATTO]”, for which the “time to specific detection of E. coli” value with E. coli (ATCC 25922) [1] is 8 h. Besides, the “time to detection of S. pyogenes” value in the data set on S. pyogenes (ATCC 12344) [2] is 19 h. In the data set with S. pyogenes (ATCC 12344) [3], the “time to detection of low concentrations of S. pyogenes” value was at most 10 h. For the same substance, in the data set with Endonuclease I, the “sensitivity to Endonuclease I” value is reported as “sensitive”. Besides, in the data set with nuclease of S. pyogenes, the “sensitivity to a nuclease of S. pyogenes” value is reported as “sensitive”.
For the substance “mUTTmUmUmUmUmUmUmUmU (UTTUUUUUUUU; sugars from the 5' end m1 d2 m8, backbone not given here) [P2&3 TT Probe]”, in data set [4], the “sensitivity to micrococcal nuclease of S. aureus” value is recorded as “sensitive”.
Take “fUfUfUfAfUfGfCfAfUfAfAfA (UUUAUGCAUAAA; all 2'-fluoro, backbone not given here; thiol or fluorophore label) [SH-Fl 5UUU]”: in the data set with Endonuclease I, the “sensitivity to Endonuclease I” value was “sensitive”. The “sensitivity to a nuclease of S. pyogenes” value in the data set with nuclease of S. pyogenes is “sensitive”.
For the substance “mCmUmAmCmGmUmAmG (CUACGUAG; all 2'-O-methyl, backbone not given here; thiol modification) [2′-OMe SH]”, in the data set on most nucleases, the resistance to nucleases result is reported as “resistant to most nucleases”.
Turning to “5′-ATTO488-TTTT-ZEN-RQSp-3′ [AttoPoly T 4mer]”, the “time to detection of S. aureus colonies after plating” value with S. aureus (ATCC 29213) is at most 8 h. Further, the “time at which MRSA can be distinguished from MSSA” value in the data set with MRSA (ATCC BAA1707) fell in the range of 8 to 10 h. Besides, in the data set on E. coli (ATCC 25922) [5], the “fluorescence produced by E. coli on probe-embedded agar” value is given as “did not produce fluorescence”. Besides, the “fluorescence produced by S. lugdunensis on probe-embedded agar” value in data set [6] was “did not produce fluorescence”.
For the substance “CTACGTAG (DNA, backbone not given here; further chemistry not fully specified) [DNA-SH]”, the “sensitivity to Endonuclease I” value with Endonuclease I is given as “sensitive”.
